# In patent publication US8507489B2, “Bicyclic triazoles as protein kinase modulators” (SGX Pharmaceuticals, Inc., priority 2006, dated 2013):
# Experiments:
# [1] = test system: GTL16 cells; test: 96-well XTT cell survival assay (GTL16 cells); type: cell-based; settings: Homo sapiens, GTL 16, 72 hours
# Method in brief: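 GTL16 cells, 5000 per well, switched to assay medium the day before, then exposed to compound in duplicate for 72 h at 37 °C, 5% CO2. Viability by XTT/PMS reduction after a further 5 h, absorbance at 450 nm with 650 nm background correction.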
# [2] = biological target: ABL1 T315I (Homo sapiens, UniProt P00519, T315I); test: SelectScreen Kinase Profiling ABL1 T315I; type: biochemical
# Source text: (§1) SelectScreen™ is a trademark screening assay protocol for kinases developed by Invitrogen Corporation, Madison, Wis. Details on assay conditions can be found on the company's website.
# [3] = biological target: ALK (Homo sapiens, UniProt Q9UM73); test: SelectScreen Kinase Profiling ALK; type: biochemical
# Source text: as §1
# [4] = biological target: AURKB (Aurora B) (Homo sapiens, UniProt Q96GD4); test: SelectScreen Kinase Profiling AURKB; type: biochemical
# Source text: as §1
# [5] = biological target: BRAF V599E (Homo sapiens, UniProt P15056, V600E); test: SelectScreen Kinase Profiling BRAF V599E; type: biochemical
# Source text: as §1
# [6] = biological target: CDK1/cyclin B (Homo sapiens, UniProt P06493); test: SelectScreen Kinase Profiling CDK1/cyclin B; type: biochemical
# Source text: as §1
# [7] = biological target: CSF1R (FMS) (Homo sapiens, UniProt P07333); test: SelectScreen Kinase Profiling CSF1R; type: biochemical
# Source text: as §1
# [8] = biological target: FES (FPS) (Homo sapiens, UniProt P07332); test: SelectScreen Kinase Profiling FES; type: biochemical
# Source text: as §1
# [9] = biological target: FGFR3 (Homo sapiens, UniProt P22607); test: SelectScreen Kinase Profiling FGFR3; type: biochemical
# Source text: as §1
# [10] = biological target: FLT3 D835Y (Homo sapiens, UniProt P36888, D835Y); test: SelectScreen Kinase Profiling FLT3 D835Y; type: biochemical
# Source text: as §1
# [11] = biological target: GSK3B (GSK3 beta) (Homo sapiens, UniProt P49841); test: SelectScreen Kinase Profiling GSK3B; type: biochemical
# Source text: as §1
# [12] = biological target: HCK (Homo sapiens, UniProt P08631); test: SelectScreen Kinase Profiling HCK; type: biochemical
# Source text: as §1
# [13] = biological target: T1, JAK2 JH1 JH2 V617F (Homo sapiens, UniProt O60674, V617F); test: SelectScreen Kinase Profiling JAK2 JH1 JH2 V617F; type: biochemical
# T1 construct: JAK2 JH1 JH2 V617F
# Source text: as §1
# [14] = biological target: KIT T670I (Homo sapiens, UniProt P10721, T670I); test: SelectScreen Kinase Profiling KIT T670I; type: biochemical
# Source text: as §1
# [15] = biological target: MAP4K4 (HGK) (Homo sapiens, UniProt O95819); test: SelectScreen Kinase Profiling MAP4K4; type: biochemical
# Source text: as §1
# [16] = biological target: MAPK1 (ERK2) (Homo sapiens, UniProt P28482); test: SelectScreen Kinase Profiling MAPK1; type: biochemical
# Source text: as §1
# [17] = biological target: MST1R (RON) (Homo sapiens, UniProt Q04912); test: SelectScreen Kinase Profiling MST1R; type: biochemical
# Source text: as §1
# [18] = biological target: NTRK3 (TRKC) (Homo sapiens, UniProt Q16288); test: SelectScreen Kinase Profiling NTRK3; type: biochemical
# Source text: as §1
# [19] = biological target: PIM1 (Homo sapiens, UniProt P11309); test: SelectScreen Kinase Profiling PIM1; type: biochemical
# Source text: as §1
# [20] = biological target: PLK1 (Homo sapiens, UniProt P53350); test: SelectScreen Kinase Profiling PLK1; type: biochemical
# Source text: as §1
# [21] = biological target: PRKCD (PKC delta) (Homo sapiens, UniProt Q05655); test: SelectScreen Kinase Profiling PRKCD; type: biochemical
# Source text: as §1
# [22] = biological target: ROS1 (Homo sapiens, UniProt P08922); test: SelectScreen Kinase Profiling ROS1; type: biochemical
# Source text: as §1
# [23] = biological target: RPS6KB1 (p70S6K) (Homo sapiens, UniProt P23443); test: SelectScreen Kinase Profiling RPS6KB1; type: biochemical
# Source text: as §1
# [24] = biological target: TYRO3 (RSE) (Homo sapiens, UniProt Q06418); test: SelectScreen Kinase Profiling TYRO3; type: biochemical
# Source text: as §1
# [25] = test system: GTL16 tumors; test: GTL16 tumor xenograft model, tumor growth; type: in vivo; settings: last day of treatment, nude mice
# Description: Female athymic nude mice (nu/nu from Harlan) were 6-8 weeks old with a body weight range of 18-22 g at the beginning of the study. The animals had free access to food and water throughout the study. The mice were housed on irradiated Alpha-Dri® Bed-O-Cobs® Laboratory Animal Bedding in static micro isolator caging on a 12-hour light cycle at 70-74° F. and 40-60% humidity. All procedures involving animals were conducted in compliance with the NIH Guide for the Care and Use of Laboratory Animals and all protocols were approved by an Internal Animal Care and Use Committee (IACUC).
# Xenografts were initiated from GTL-16 tumor cells cultured and maintained by an internal Cell Biology Department. Each test mouse received a subcutaneous injection of 4×10^6 cells suspended in 100 μL of serum free RPMI media. Tumors were randomized into treatment groups on Day 5 when the average tumor size reached approximately 150 mm^3. Each dose groups contained n=5 mice. Tumor volume was calculated using the formula:
# [formula] where w=width and l=length in mm of the tumor. Tumor weight may be estimated with the assumption that 1 mg is equivalent to 1 mm^3 of tumor volume. Tumor Growth Inhibition (TGI) Analysis
# TGI was calculated from the difference between the mean tumor volumes of vehicle-treated and drug-treated mice, expressed as a percentage. % TGI=Mean Tumor Volumecontrol−Mean Tumor Volumedrug-treated×100 […] Tumor Volumecontrol
# The MTV is defined as the mean tumor volume (MTV) for the number of animals, n, remaining in the study on that day.
# Chain of MAP4K4 (HGK) (O95819 whole entry): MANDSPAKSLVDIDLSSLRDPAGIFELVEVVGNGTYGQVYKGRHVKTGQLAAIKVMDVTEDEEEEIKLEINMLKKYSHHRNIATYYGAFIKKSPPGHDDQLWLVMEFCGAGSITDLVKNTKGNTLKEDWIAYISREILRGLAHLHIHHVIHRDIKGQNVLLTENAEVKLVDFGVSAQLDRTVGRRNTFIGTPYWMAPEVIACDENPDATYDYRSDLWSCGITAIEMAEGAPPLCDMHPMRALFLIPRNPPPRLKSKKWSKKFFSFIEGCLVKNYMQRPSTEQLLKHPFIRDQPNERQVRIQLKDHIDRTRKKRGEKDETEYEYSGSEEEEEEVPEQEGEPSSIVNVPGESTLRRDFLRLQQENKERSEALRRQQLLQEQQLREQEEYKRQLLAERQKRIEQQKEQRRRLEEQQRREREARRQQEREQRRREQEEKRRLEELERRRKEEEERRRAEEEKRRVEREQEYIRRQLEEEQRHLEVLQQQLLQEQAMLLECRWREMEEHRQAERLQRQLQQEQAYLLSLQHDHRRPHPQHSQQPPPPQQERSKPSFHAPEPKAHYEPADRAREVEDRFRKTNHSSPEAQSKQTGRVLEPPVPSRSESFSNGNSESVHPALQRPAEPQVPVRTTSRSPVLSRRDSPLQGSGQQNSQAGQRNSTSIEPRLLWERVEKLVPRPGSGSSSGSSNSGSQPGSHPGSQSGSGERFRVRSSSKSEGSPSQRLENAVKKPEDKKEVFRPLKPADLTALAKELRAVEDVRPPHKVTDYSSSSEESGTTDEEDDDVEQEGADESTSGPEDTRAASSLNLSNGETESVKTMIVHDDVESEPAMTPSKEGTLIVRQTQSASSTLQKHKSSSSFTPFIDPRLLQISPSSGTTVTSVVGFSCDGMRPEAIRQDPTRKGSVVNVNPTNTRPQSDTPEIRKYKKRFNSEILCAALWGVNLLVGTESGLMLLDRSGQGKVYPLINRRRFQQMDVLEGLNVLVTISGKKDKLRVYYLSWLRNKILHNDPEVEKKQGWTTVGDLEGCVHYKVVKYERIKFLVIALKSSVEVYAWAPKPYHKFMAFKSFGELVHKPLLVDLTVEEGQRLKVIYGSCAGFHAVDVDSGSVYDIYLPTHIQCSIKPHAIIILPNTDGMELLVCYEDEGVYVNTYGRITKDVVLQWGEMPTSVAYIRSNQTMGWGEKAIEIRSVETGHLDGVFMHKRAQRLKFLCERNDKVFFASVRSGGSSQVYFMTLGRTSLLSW
# Chain of KIT T670I (P10721 26-976 T670I): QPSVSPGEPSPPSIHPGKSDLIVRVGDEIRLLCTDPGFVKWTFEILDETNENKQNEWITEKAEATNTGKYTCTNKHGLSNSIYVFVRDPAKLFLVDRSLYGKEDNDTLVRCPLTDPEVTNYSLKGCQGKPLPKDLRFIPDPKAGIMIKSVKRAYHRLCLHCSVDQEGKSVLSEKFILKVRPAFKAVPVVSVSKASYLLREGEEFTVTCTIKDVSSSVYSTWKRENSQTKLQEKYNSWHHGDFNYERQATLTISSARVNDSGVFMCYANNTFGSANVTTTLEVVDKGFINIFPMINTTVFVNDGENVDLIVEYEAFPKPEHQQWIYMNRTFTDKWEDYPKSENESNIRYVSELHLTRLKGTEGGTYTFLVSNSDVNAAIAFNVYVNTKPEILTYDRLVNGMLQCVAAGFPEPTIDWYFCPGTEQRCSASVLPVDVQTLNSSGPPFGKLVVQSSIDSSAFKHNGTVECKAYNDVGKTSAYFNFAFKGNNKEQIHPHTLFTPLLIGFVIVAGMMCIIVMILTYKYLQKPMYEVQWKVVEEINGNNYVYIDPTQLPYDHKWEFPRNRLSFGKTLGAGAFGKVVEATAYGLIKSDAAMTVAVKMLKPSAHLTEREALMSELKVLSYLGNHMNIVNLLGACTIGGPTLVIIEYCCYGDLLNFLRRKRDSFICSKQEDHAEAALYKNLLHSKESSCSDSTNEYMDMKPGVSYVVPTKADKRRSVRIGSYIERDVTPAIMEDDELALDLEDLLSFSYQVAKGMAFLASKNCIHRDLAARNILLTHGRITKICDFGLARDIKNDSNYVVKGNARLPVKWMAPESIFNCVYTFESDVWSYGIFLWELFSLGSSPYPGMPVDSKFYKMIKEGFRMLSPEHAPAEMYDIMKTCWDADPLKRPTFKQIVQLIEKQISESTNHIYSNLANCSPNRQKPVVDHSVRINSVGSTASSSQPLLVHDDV
# Chain of AURKB (Aurora B) (Q96GD4 whole entry): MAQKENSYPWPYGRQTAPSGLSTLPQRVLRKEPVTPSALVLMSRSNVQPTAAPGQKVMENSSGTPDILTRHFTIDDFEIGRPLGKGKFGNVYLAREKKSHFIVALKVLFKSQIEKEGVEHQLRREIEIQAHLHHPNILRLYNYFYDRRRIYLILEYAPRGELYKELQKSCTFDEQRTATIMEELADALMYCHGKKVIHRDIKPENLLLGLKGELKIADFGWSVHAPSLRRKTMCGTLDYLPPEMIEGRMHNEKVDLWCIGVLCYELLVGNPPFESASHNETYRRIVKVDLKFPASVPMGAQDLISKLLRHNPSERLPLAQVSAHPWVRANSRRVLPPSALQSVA
# Chain of TYRO3 (RSE) (Q06418 41-890): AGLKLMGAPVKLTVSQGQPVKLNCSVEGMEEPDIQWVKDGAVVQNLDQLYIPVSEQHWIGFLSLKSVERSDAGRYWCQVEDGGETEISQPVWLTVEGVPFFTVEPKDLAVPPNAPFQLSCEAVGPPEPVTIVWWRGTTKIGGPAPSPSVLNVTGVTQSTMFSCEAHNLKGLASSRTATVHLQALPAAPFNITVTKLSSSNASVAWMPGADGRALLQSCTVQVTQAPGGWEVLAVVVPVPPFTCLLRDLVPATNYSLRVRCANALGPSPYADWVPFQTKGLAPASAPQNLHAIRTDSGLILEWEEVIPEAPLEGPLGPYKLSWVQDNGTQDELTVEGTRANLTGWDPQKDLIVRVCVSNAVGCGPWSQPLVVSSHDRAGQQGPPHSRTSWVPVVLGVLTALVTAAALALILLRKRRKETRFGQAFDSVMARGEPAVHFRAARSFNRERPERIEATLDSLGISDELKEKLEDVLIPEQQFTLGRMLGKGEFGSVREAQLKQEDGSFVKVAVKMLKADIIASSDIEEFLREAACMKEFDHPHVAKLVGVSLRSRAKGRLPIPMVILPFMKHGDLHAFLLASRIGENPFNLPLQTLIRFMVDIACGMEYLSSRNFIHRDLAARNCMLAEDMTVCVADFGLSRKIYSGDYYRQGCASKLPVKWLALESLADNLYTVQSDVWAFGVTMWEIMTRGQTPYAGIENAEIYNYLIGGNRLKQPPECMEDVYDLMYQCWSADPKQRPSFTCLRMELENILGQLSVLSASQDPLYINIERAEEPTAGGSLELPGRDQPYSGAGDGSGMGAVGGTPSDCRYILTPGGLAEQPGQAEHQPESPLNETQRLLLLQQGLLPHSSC
# Chain of GSK3B (GSK3 beta) (P49841 whole entry): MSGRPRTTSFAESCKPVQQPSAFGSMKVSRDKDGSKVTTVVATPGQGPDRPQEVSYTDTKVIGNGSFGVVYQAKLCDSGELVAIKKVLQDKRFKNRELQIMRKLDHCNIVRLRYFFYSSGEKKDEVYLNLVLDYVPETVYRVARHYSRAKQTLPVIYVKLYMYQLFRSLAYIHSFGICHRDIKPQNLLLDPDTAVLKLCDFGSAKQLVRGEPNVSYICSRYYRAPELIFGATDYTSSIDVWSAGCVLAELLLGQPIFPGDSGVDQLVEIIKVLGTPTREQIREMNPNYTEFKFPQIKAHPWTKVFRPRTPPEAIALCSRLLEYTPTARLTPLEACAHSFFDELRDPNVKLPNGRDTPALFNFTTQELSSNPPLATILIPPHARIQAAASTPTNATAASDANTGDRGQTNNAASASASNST
# Chain of PIM1 (P11309 whole entry): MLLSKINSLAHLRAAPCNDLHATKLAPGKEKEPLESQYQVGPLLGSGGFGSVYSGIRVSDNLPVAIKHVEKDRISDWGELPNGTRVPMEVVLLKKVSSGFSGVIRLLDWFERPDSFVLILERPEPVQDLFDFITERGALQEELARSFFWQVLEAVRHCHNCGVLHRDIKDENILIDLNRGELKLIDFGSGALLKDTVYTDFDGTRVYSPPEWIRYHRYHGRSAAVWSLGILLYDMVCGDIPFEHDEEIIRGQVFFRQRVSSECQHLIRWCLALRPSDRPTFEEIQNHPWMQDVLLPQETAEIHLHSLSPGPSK
# Chain of FGFR3 (P22607 23-806): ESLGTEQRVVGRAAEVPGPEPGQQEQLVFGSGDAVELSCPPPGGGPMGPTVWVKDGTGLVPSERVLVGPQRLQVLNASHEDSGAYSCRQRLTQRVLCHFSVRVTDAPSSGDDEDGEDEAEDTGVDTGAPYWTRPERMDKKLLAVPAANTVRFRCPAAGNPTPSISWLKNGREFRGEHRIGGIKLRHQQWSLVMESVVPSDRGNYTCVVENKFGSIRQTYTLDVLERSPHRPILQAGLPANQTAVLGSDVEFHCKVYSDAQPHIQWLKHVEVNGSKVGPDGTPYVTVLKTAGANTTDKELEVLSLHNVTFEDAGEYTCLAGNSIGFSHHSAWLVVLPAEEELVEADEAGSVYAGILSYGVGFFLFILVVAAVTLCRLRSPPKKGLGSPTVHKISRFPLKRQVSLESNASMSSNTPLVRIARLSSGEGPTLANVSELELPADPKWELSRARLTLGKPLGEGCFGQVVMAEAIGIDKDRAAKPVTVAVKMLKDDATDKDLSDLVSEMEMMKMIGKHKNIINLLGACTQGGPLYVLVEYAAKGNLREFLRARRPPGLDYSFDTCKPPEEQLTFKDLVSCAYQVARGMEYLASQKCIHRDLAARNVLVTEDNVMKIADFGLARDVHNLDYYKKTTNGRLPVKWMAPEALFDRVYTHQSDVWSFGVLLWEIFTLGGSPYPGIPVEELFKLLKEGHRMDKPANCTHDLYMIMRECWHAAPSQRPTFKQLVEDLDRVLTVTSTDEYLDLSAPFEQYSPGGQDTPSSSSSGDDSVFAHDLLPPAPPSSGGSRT
Structure (SMILES),IC50 [1],inhibition at 1 µM [2],inhibition at 1 µM [3],inhibition at 1 µM [4],inhibition at 1 µM [5],inhibition at 1 µM [6],inhibition at 1 µM [7],inhibition at 1 µM [8],inhibition at 1 µM [9],inhibition at 1 µM [10],inhibition at 1 µM [11],inhibition at 1 µM [12],inhibition at 1 µM [13],inhibition at 1 µM [14],inhibition at 1 µM [15],inhibition at 1 µM [16],inhibition at 1 µM [17],inhibition at 1 µM [18],inhibition at 1 µM [19],inhibition at 1 µM [20],further results
"Cn1cc(-c2ccc3nnc(Sc4ccc5ncccc5c4)n3n2)cn1 [Compound 4, 6-[6-(1-Methyl-1H-pyrazol-4-yl)-[1,2,4]triazolo[4,3-b]pyridazin-3-ylsulfanyl]-quinoline]",≤ 100 nM,11%,-10%,7%,36%,5%,19%,5%,-4%,8%,5%,8%,-11%,-12%,-1%,9%,9%,7%,4%,0%,"inhibition at 1 µM [21]: 4%; inhibition at 1 µM [22]: 7%; inhibition at 1 µM [23]: 3%; inhibition at 1 µM [24]: 19%; decrease of mean tumor volume compared to vehicle-treated group ([25]; 10 mg/kg PO Q12H, 14 consecutive days): 65%; decrease of mean tumor volume compared to vehicle-treated group ([25]; 20 mg/kg PO Q12H, 14 consecutive days): 75%; decrease of mean tumor volume compared to vehicle-treated group ([25]; 30 mg/kg PO Q12H, 14 consecutive days): 81%; decrease of mean tumor volume compared to vehicle-treated group ([25]; 60 mg/kg PO Q24H, 14 consecutive days): 75%; decrease of mean tumor volume compared to vehicle-treated group ([25]; 100 mg/kg PO Q12H, 14 consecutive days): 87%"
"Cc1ccc2nnc(Sc3ccc4ncc(-c5cnn(C)c5)cc4c3)n2n1 [Compound 41, 3-(1-Methyl-1H-pyrazol-4-yl)-6-(6-methyl-[1,2,4]triazolo[4,3-b]pyridazin-3-ylsulfanyl)-quinoline]",≤ 100 nM,47%,23%,61%,7%,17%,79%,1%,26%,35%,1%,9%,9%,4%,27%,0%,53%,85%,0%,0%,"inhibition at 1 µM [21]: 5%; inhibition at 1 µM [22]: 41%; inhibition at 1 µM [23]: 5%; inhibition at 1 µM [24]: 22%; decrease of mean tumor volume compared to vehicle-treated group ([25]; 1 mg/kg PO Q12H, 13 consecutive days): 42%; decrease of mean tumor volume compared to vehicle-treated group ([25]; 3 mg/kg PO Q12H, 13 consecutive days): 67%; decrease of mean tumor volume compared to vehicle-treated group ([25]; 10 mg/kg PO Q12H, 13 consecutive days): 80%; decrease of mean tumor volume compared to vehicle-treated group ([25]; 30 mg/kg PO Q12H, 13 consecutive days): 87%"
